Reference: patent US6407109B1, “Pyrrolyl tetrahydroquinoxalin diones, their production and use in the treatment of diseases” (Abbott Laboratories, priority 1995, dated 2002)

Test system: AMPA receptor
Assay: Binding of 3H-AMPA to rat cerebral membrane material
Conditions: compared with 1-(ethoxycarbonylmethyl)-7-(3-formyl-1-pyrrolyl)-6-nitroquinoxaline-2,3(1H,4H)-dione
Procedure: The pharmacological activity of the compounds I was investigated on isolated membrane material from rat cerebra. For this purpose, the membrane material was treated in the presence of the compounds according to the invention with the radiolabeled substance ^3H-2-amino-3-hydroxy-5-methyl-4-isoxazolepropionic acid (^3H-AMPA), [^3H]-glycine or [^3H]-kainate which bind to specific receptors (AMPA, NMDA or kainate receptors). The radioactivity of the treated membranes was then measured by scintillation counting. It was possible to determine from the bound radioactivity the amounts of bound ^3H-AMPA, [^3H]-glycine or [^3H]-kainate, or in each case the displaced amounts of these radiolabeled substances. […]
To prepare the membrane material, freshly removed rat cerebra were homogenized together with 15 times the volume of a buffer solution A composed of 30 mM tris(hydroxymethyl)methylamine hydrochloride (TRIS-HCl) and 0.5 mM ethylenediaminetetraacetic acid (EDTA), pH 7.4, using an Ultra-Turrax^R. The suspension was centrifuged at 48000 g for 20 min. […] After measurement of the radioactivity of the bound ^3H-AMPA in the membrane material by scintillation counting, the KI was determined by regression analysis of the displacement plots.

| activity in 3H-AMPA binding relative to the closely related aldehyde (Example 80 in EP 572 852) | SMILES |
| --- | --- |
| distinctly more active | CCOC(=O)Cn1c(=O)c(=O)[nH]c2cc([N+](=O)[O-])c(-n3ccc(C(=O)O)c3)cc21 [Example 2, 7-(3-Carboxy-1-pyrrolyl)-1-(ethoxycarbonylmethyl)-6-nitroquin-oxaline-2,3(1H,4H)-dione] |

Same assay, conditions: isolated membrane material from rat cerebra, 3H-AMPA, incubated on ice for 60 min; read-out: kI (dissociation constant, displacement of 3H-AMPA)

| Ki | SMILES |
| --- | --- |
| < 10 µM | CCOC(=O)Cn1c(=O)c(=O)[nH]c2cc([N+](=O)[O-])c(-n3ccc(C(=O)O)c3)cc21 [Example 2, 7-(3-Carboxy-1-pyrrolyl)-1-(ethoxycarbonylmethyl)-6-nitroquin-oxaline-2,3(1H,4H)-dione] |

Test system: not given
Assay: not given
Conditions: not given

| melting point | SMILES |
| --- | --- |
| > 300 °C | CCOC(=O)Cn1c(=O)c(=O)[nH]c2cc([N+](=O)[O-])c(-n3ccc(C(=O)NCc4ccc([N+](=O)[O-])cc4)c3)cc21 |
| > 210 °C (dec.) | O=C(O)Cn1c(=O)c(=O)[nH]c2cc([N+](=O)[O-])c(-n3ccc(C(=O)NCc4ccc([N+](=O)[O-])cc4)c3)cc21 |
| 292 to 295 °C | CCOC(=O)Cn1c(=O)c(=O)[nH]c2ccc3ccc(-n4ccc(C(=O)O)c4)cc3c21 [Example 3, 9-(3-Carboxy-1-pyrrolyl)-1-(ethoxycarbonylmethyl)benzo[f]-quinoxaline-2,3(1H,4H)-dione] |
| 223 °C (dec.) | CCOC(=O)Cn1c(=O)c(=O)[nH]c2cc([N+](=O)[O-])c(-n3ccc(C(=O)NCc4ccccc4)c3)cc21 [Example 8, 7-(3-Benzylcarbamoyl-1-pyrrolyl)-1-ethoxycarbonylmethyl-6-nitro-quinoxaline-2,3(1H,4H)-dione] |
| > 300 °C | CCOC(=O)Cn1c(=O)c(=O)[nH]c2cc([N+](=O)[O-])c(-n3ccc(C(=O)NCc4ccncc4)c3)cc21 [Example 11, 1-Ethoxycarbonylmethyl-6-nitro-7-(3-(4-pyridinylmethylcarbamoyl)-1-pyrrolyl)quinoxaline-2,3(1H,4H)-dione] |
| > 300 °C | O=C(O)Cn1c(=O)c(=O)[nH]c2ccc3c(-n4ccc(C(=O)O)c4)cccc3c21 [Example 15, 1-Carboxymethyl-7-(3-carboxy-1-pyrrolyl)benzo[f]quinoxaline-2,3(1H, 4H)-dione] |
| > 250 °C (dec.) | O=C(O)Cn1c(=O)c(=O)[nH]c2cc([N+](=O)[O-])c(-n3ccc(C(=O)N4CCN(CCc5ccccc5)CC4)c3)cc21 [Example 20, 1-Carboxymethyl-6-nitro-7-(3-(4-(2-phenylethyl)-1-piperazinyl-carbonyl)-1-pyrrolyl)quinoxaline-2,3(1H, 4H)-dione] |
| 224 to 227 °C (dec.) | O=C(O)Cn1c(=O)c(=O)[nH]c2cc([N+](=O)[O-])c(-n3ccc(C(=O)NCCCc4ccccc4)c3)cc21 [Example 21, 1-Carboxymethyl-6-nitro-7-(3-(3-phenylpropylcarbamoyl)-1-pyrrolyl)quinoxaline-2,3(1H,4H)-dione] |
| > 300 °C | O=C(O)Cn1c(=O)c(=O)[nH]c2cc([N+](=O)[O-])c(-n3ccc(C(=O)NCc4ccncc4)c3)cc21 [Example 22, 1-Carboxymethyl-6-nitro-7-(3-(4-pyridinylmethylcarbamoyl)-1-pyrrolyl)quinoxaline-2,3(1H,4H)-dione] |
